Data as given in US20100197586A1, “USE OF SECRETIN AND OPTIONALLY URODILATIN AS THERAPEUTIC AGENTS” (priority 2007, published 2010).
Where no end group is shown, it is not given here.

How the values were obtained:
[1] = system: HIV-1IIIB; assay: HIV-1 antiviral assay in CEM-SS cells
[2] = system: HCMV strain AD169; assay: HCMV plaque assay in MRC-5 cells; settings: for inhibition of HCMV plaque formation as compared to the virus control experiment: 10 micrograms per ml, MRC-5 cells, 7-10 days
[3] = system: Interferon-γ (IFN-γ); assay: Th1/Th2 cytokine profiling assay: IFN-γ; assay type: cell-based, mouse; settings: 10 micrograms per ml; Ovalbumin-restimulated spleen cells, 72 hours; combination 0.95 mole peptide 1 and 1.05 mole peptide 2
[4] = system: MRSA; assay: Methicillin Resistant Staphylococcus Aureus (MRSA) assay; settings: 10 micrograms per ml; 5×10^5 CFU/mL; combination for instance 0.95 mole peptide 1 and 1.05 mole peptide 2
[5] = system: HUVEC; assay: Endothelial tube formation assay; assay type: cell-based, human; settings: 10 micrograms per ml, 20 hours, combination peptide 1:peptide 2 1.10 mole:0.90 mole
From the text: Positive control was vehicle only.

[6] = system: Primary Human endothelial cells (HUVEC); assay: Endothelial cell migration assay; assay type: cell-based; settings: 10 micrograms per ml, 22 hours
[7] = system: Tumor Necrosis Factor-α (TNF-α); assay: Th1/Th2 cytokine profiling assay: TNF-α; assay type: cell-based, mouse; settings: 10 micrograms per ml; Ovalbumin-restimulated spleen cells, 72 hours; combination 0.95 mole peptide 1 and 1.05 mole peptide 2
[8] = system: Interleukin-2 (IL-2); assay: Th1/Th2 cytokine profiling assay: IL-2; assay type: cell-based, mouse; settings: 10 micrograms per ml, 72 hours
[9] = system: hepatitis B virus (HBV) ayw strain; assay: HBV experimental assay system (HepG2-2.2.15, TaqMan PCR of HBV DNA); assay type: cell-based; settings: 10 micrograms per ml; HepG2-2.2.15, six days; combination 0.95 mole peptide 1 and 1.05 mole peptide 2
From the text: HepG2-2.2.15 is a stable cell line containing the hepatitis B virus (HBV) ayw strain genome (ATCC Cat. No. CRL-11997). Antiviral compounds blocking any late step of viral replication such as transcription, translation, pregenome encapsidation, reverse transcription, particle assembly and release can be identified and characterized using this cell line. In this assay, an active compound will reduce the production of secreted HBV from cells, measured by utilizing real time quantitative PCR (TaqMan) assay to directly and accurately measure HBV DNA copies.
HepG2-2.2.15 cells were plated in 96-well microtiter plates. After 16-24 hours the confluent monolayer of HepG2-2.2.15 cells was washed and the medium was replaced with complete medium containing test peptides—10 micrograms per ml—in duplicate. […] Six days following the initial administration of the peptides, the cell culture supernatants was collected, treated with pronase and DNAse and then used in a real-time quantitative TaqMan PCR assay. The PCR-amplified HBV DNA was detected in real-time by monitoring increases in fluorescence signals that result from the exonucleolytic degradation of a quenched fluorescence probe molecule that hybridizes to the amplified HBV DNA. […] Antiviral activity was calculated from the reduction in HBV DNA levels (% virus control). […]

[10] = system: Interleukin-5 (IL-5); assay: Th1/Th2 cytokine profiling assay: IL-5; assay type: cell-based, mouse; settings: 10 micrograms per ml; Ovalbumin-restimulated spleen cells, 72 hours
[11] = system: Interleukin-4 (IL-4); assay: Th1/Th2 cytokine profiling assay: IL-4; assay type: cell-based, mouse; settings: 10 micrograms per ml, Ovalbumin-restimulated spleen cells, 72 hours

| Compound | antiviral activity of positive control compounds (HIV-1) [1] | change of the production of IFN-γ in murine spleen cells [3] | inhibition of the growth of MRSA [4] [%] | inhibition of the tube formation of human endothelial cells [5] [%] | inhibition of the migration of human endothelial cells [6] [%] | change of the production of TNF-alpha in murine spleen cells [7] | inhibition of HBV replication as compared to the virus control infection [9] | inhibition of HCMV plaque formation as compared to the virus control experiment [2] | further results |
| --- | --- | --- | --- | --- | --- | --- | --- | --- | --- |
| Cc1cn([C@H]2C[C@H](N=[N+]=[N-])[C@@H](CO)O2)c(=O)[nH]c1=O [AZT] | expected levels of antiviral activity | – | – | – | – | – | – | – | – |
| Nc1nc(O)c2ncn(COC(CO)CO)c2n1 [Ganciclovir, reference compound] | – | – | – | – | – | – | – | – | antiviral activity of positive control compound (HCMV) ([2]; positive control compound): expected levels of antiviral activity |
| CC(C)(C)NC(=O)[C@@H]1CN(Cc2cccnc2)CCN1C[C@@H](O)C[C@@H](Cc1ccccc1)C(=O)N[C@H]1c2ccccc2C[C@H]1O [indinavir] | expected levels of antiviral activity | – | – | – | – | – | – | – | – |
| His-Ser-Asp-Gly-Thr-Phe-Thr-Ser-Glu-Leu-Ser-Arg-Leu-Arg-Glu-Gly-Ala-Arg-Leu-Gln-Arg-Leu-Leu-Gln-Gly-Leu-Val-NH2 [Peptide 1] | – | did not significantly change | 100 | 33 | 2 | did not significantly change | 27.6% | did not inhibit | decrease of the production of IL-2 in murine spleen cells ([8]; Ovalbumin-restimulated spleen cells of Balb/c mice): 77.7%; decrease of the production of IL-5 [10]: 45.8%; change of the production of IL-4 in murine spleen cells [11]: did not significantly change |
| Thr-Ala-Pro-Arg-Ser-Leu-Arg-Arg-Ser-Ser-Cys-Phe-Gly-Gly-Arg-Met-Asp-Arg-Ile-Gly-Ala-Gln-Ser-Gly-Leu-Gly-Cys-Asn-Ser-Phe-Arg-Tyr-OH (TAPRSLRRSSCFGGRMDRIGAQSGLGCNSFRY-OH; ends and bridges not checked) [Peptide 2, Urodilatin] | – | did not significantly change | 100 | 9 | 10 | did not significantly change | did not inhibit | did not inhibit | change of the production of IL-2 in murine spleen cells ([8]; Ovalbumin-restimulated spleen cells, combination 0.95 mole peptide 1 and 1.05 mole peptide 2): did not significantly change; suppression of the production of IL-4 in murine spleen cells [11]: 30.4%; induction of the production of IL-4 ([11]; combination 0.95 mole peptide 1 and 1.05 mole peptide 2): 59.7% |
